Test results published in the supplement of paper PMC10307832.

Legend:
Experiment in all cases: relative viability (nuclei count vs DMSO), 5 days (fraction); higher = more cells survive
BAM7 + Palbociclib = compound: CCOC1=CC=CC=C1N=NC2=C(NN(C2=O)C3=NC(=CS3)C4=CC=CC=C4)C [BAM7] + CC(=O)c1c(C)c2cnc(Nc3ccc(N4CCNCC4)cn3)nc2n(C2CCCC2)c1=O [Palbociclib] (partner 0.5 µM)
How it was run: (§1)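 For relative viability, nuclei counts in treated wells were divided by those in vehicle wells. Lung cancer cell lines had been pin-tool dosed in 1536-well plates the day after seeding and cultured for 5 days, then fixed and stained in one step (final 0.05% Triton X-100, 1% formaldehyde, 1 ug/ml Hoechst) and imaged at 4×. Doses were one drug alone or a fixed anchor-drug dose plus five library-drug doses (not always all listed) in √10 steps, and values are duplicate-plate medians.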

BAM7 + Pemetrexed = compound: CCOC1=CC=CC=C1N=NC2=C(NN(C2=O)C3=NC(=CS3)C4=CC=CC=C4)C [BAM7] + Nc1nc2[nH]cc(CCc3ccc(C(=O)N[C@@H](CCC(=O)O)C(=O)O)cc3)c2c(=O)[nH]1 [Pemetrexed] (partner 0.2 µM)
How it was run: as §1

[1] = compound: CCn1c(-c2nonc2N)nc2c(C#CC(C)(C)O)ncc(OC[C@H]3CCCNC3)c21 + Nc1ncn([C@H]2C[C@H](O)[C@@H](CO)O2)c(=O)n1 [Decitabine] (partner 2 µM)
How it was run: as §1

[2] = compound: CCn1c(-c2nonc2N)nc2c(C#CC(C)(C)O)ncc(OC[C@H]3CCCNC3)c21 + Cc1nc(NC(=O)N2CCC[C@H]2C(N)=O)sc1-c1ccnc(C(C)(C)C(F)(F)F)c1 [Alpelisib] (partner 2 µM)
How it was run: as §1

Row | Cell Line | relative viability (BAM7 + Palbociclib; first compound 0.5 µM) | relative viability (BAM7 + Palbociclib; first compound 5 µM) | relative viability (BAM7 + Palbociclib; first compound 15.81 µM) | relative viability (BAM7 + Palbociclib; first compound 50 µM) | relative viability (BAM7 + Pemetrexed; first compound 0.5 µM) | relative viability (BAM7 + Pemetrexed; first compound 5 µM) | relative viability (BAM7 + Pemetrexed; first compound 15.81 µM) | relative viability (BAM7 + Pemetrexed; first compound 50 µM) | relative viability ([1]; first compound 0.01 µM) | relative viability ([1]; first compound 0.03162 µM) | relative viability ([1]; first compound 0.1 µM) | relative viability ([1]; first compound 0.3162 µM) | relative viability ([1]; first compound 1 µM) | relative viability ([2]; first compound 0.01 µM) | relative viability ([2]; first compound 0.03162 µM) | relative viability ([2]; first compound 0.1 µM) | relative viability ([2]; first compound 0.3162 µM) | relative viability ([2]; first compound 1 µM)
1 | HCC-78 | 0.487 | 0.383 | 0.49 | 0.45 | 0.929 | 0.913 | 0.963 | 0.863 | 0.628 | 0.627 | 0.674 | 0.709 | 0.543 | 0.306 | 0.372 | 0.351 | 0.307 | 0.356
2 | IA-LM | – | – | – | – | – | – | – | – | – | – | – | – | – | 0.728 | 0.733 | 0.987 | 0.654 | 0.613
3 | NCI-H322M | 0.527 | 0.564 | 0.524 | 0.509 | 0.622 | 0.64 | 0.645 | 0.582 | 0.785 | 0.721 | 0.617 | 0.593 | 0.575 | 0.868 | 0.765 | 0.121 | 0.853 | 0.813
4 | NCI-H3122 | 0.174 | 0.225 | 0.186 | 0.198 | 0.194 | 0.191 | 0.196 | 0.195 | 0.499 | 0.364 | 0.427 | 0.436 | 0.414 | 0.869 | 0.71 | 0.795 | 0.798 | 0.756
5 | COR-L23 | 0.284 | 0.315 | 0.294 | 0.275 | 0.209 | 0.182 | 0.193 | 0.206 | 0.429 | 0.353 | 0.348 | 0.352 | 0.38 | 0.695 | 0.866 | 0.671 | 0.663 | 0.7
6 | NCI-H2087 | 0.272 | 0.255 | 0.229 | 0.292 | 0.671 | 0.627 | 0.653 | 0.646 | 0.327 | – | 0.283 | 0.208 | 0.326 | 0.917 | 1.2 | 1.13 | 1.02 | 0.927
7 | LC-2-ad | 0.487 | 0.478 | 0.545 | 0.485 | 0.297 | 0.277 | 0.293 | 0.29 | 0.776 | 0.824 | 0.875 | 0.705 | 0.7 | 0.898 | 0.973 | 0.925 | 0.823 | 0.565
8 | NCI-H1915 | 0.598 | 0.548 | 0.516 | 0.501 | 0.425 | 0.505 | 0.524 | 0.46 | 0.254 | 0.252 | 0.258 | 0.248 | 0.248 | 1.06 | 1.06 | 1.02 | 1.04 | 1.08
9 | NCI-H1793 | 0.252 | 0.291 | 0.251 | 0.34 | 0.931 | 0.728 | 0.809 | 1.13 | 0.478 | 0.522 | – | 0.534 | 0.503 | 0.815 | 0.812 | 0.508 | 0.592 | 0.64
10 | NCI-H2023 | 0.375 | 0.316 | 0.293 | 0.327 | 0.229 | 0.248 | 0.174 | 0.286 | 0.207 | 0.202 | 0.221 | 0.245 | 0.236 | 0.636 | 0.625 | 0.539 | 0.504 | 0.559
11 | COR-L 105 | 0.407 | 0.387 | 0.373 | 0.41 | 1.02 | 1.31 | 1.01 | 1.15 | 0.651 | 0.681 | 0.651 | 0.749 | 1.58 | 1.05 | 0.962 | 0.871 | 0.703 | 0.808
12 | ChaGo-K-1 | 1.02 | 0.965 | 0.819 | 0.902 | 0.256 | 0.257 | 0.249 | 0.272 | 0.483 | 0.5 | 0.559 | 0.487 | 0.533 | – | – | – | – | –
13 | NCI-H522 | 1.19 | 0.986 | 0.649 | 1.16 | 1.13 | 1.09 | 1.25 | 0.998 | 0.656 | 0.675 | 0.682 | 0.679 | 0.716 | – | – | – | – | –
14 | NCI-H1299 | – | – | – | – | – | – | – | – | – | – | – | – | – | 1.05 | 1.06 | 1.05 | 1.03 | 0.968
15 | NCI-H1650 | 0.351 | 0.268 | 0.304 | 0.456 | 0.336 | 0.399 | 0.399 | 0.354 | 0.355 | 0.455 | 0.522 | 0.208 | 0.442 | – | – | – | – | –
16 | NCI-H1648 | 0.303 | 0.257 | 0.264 | 0.375 | 0.874 | 0.88 | 0.677 | 1.03 | 0.565 | 0.482 | 0.464 | 0.491 | 0.498 | – | – | – | – | –
17 | NCI-H596 | – | – | – | – | 0.544 | 0.498 | 0.452 | 0.559 | 1.05 | – | 0.961 | 0.929 | 1.03 | 0.365 | 0.522 | 0.482 | 0.487 | 0.503
18 | NCI-H727 | 0.579 | 0.689 | 0.714 | 0.731 | – | – | – | – | 1.03 | 0.976 | 0.943 | 0.825 | 0.714 | 0.576 | 0.527 | 0.714 | 0.608 | 0.479
19 | NCI-H2342 | 0.482 | 0.498 | 0.531 | 0.539 | 0.677 | 0.712 | 0.734 | 0.72 | 0.747 | 0.692 | 0.773 | 0.667 | 0.625 | – | – | – | – | –
20 | SW 900 | – | 0.543 | – | 0.596 | – | 0.44 | – | 0.505 | 0.425 | 0.442 | 0.502 | 0.484 | 0.42 | – | – | – | – | –
21 | A549 | – | – | – | – | – | – | – | – | 0.207 | 0.202 | 0.292 | 0.27 | 0.215 | 0.761 | 0.654 | 0.748 | 0.482 | 0.714
22 | NCI-H1563 | – | – | – | – | 0.778 | 0.853 | 0.813 | 0.633 | – | – | – | – | – | 0.872 | 0.913 | 0.913 | 0.837 | 0.826
23 | ABC-1 | 0.548 | 0.667 | 0.774 | 0.584 | – | – | – | – | 1.18 | – | 1.2 | 0.97 | 1.02 | 0.849 | 0.961 | 1.09 | 0.881 | 0.715
